From US20050054629A1, “Compounds and methods of treating cell proliferative diseases” (priority 2002, published 2005)
Read-outs that look alike come from different tables or passages of the source.

How the values were obtained:
HCT116 = experiment: Cell viability assay (MTT), Example 32; format: cell-based, human; conditions: for IC50: Homo sapiens, HCT-116, 144 h, day 6, 10% FBS
Protocol: FIG. 7: Antiproliferative effect of compounds on HCT116 (top) and MDA-MB-231 (bottom) cell lines measured by MTT viability assay. 2.5 10^3 (HCT116) or 7.5 10^3 (MDA-MB-231) cells were seeded in 48-well plates in growth medium containing 10% FBS, with or without various concentrations of test compounds. Cell cultures were fed every 3 days with the appropriate media. Cell viability was determined on day 6. Data were analyzed and IC50s were calculated from the dose-response curves using GraphPad Prism.
In order to determine one compound effect on cell viability, microculture tetrazolium assay (MTT) was performed as described by Carmichael et al., (1996) with modifications. Four human tumoral cell lines, namely HCT116 colon adenocarcinoma, H460 lung carcinoma, MCF-7 and MDA-MB-231 breast carcinoma cell lines, and 3 immortalized but non tumorigenic cell lines, namely NIH3T3 mouse fibroblasts and human breast-derived MCF10-A and human lung-derived MRC-5 were purchased at ATCC and cultured according to their recommendations. Briefly, 2.5 10^3 to 2 10^4 cells per well were seeded in 48-well plates 24 hours before drug addition. Cells were treated with 0 to 200 μM (11 concentrations) of compound solubilized in DMSO, adjusting the final concentration of DMSO to 1% in the well. Six days after treatment, the medium was replaced by PBS containing 0.5 mg/ml MTT (Sigma) and cells were incubated for 1-3 hours at 37° C. before solubilization of formazan crystals in 100% DMSO. Absorbance was measured using a spectrophotometer at a wavelength of 550 nm. Data was analyzed using the GraphPad Prism software (GraphPad Software, Inc., San Diego, USA), and IC50 (dose leading to 50% cell death) was calculated from the dose-response curves.

MDA-MB-231 cells [1] = experiment: Migration assay (Boyden chamber, non-coated filters); format: cell-based, human; conditions: MDA-MB-231, Boyden chamber
Protocol: (§1) One day after seeding, 10^6 MDA-MB-231 cells were treated overnight with different concentrations of compounds (1, 10, 17.5, 25 and 50 μM). Cells were collected with Versene (Invitrogen), counted with trypan blue exclusion, rinsed twice in serum-free medium containing 0.1% BSA and resuspended in serum-free medium containing 0.1% BSA plus the appropriate concentration of compound. 10^5 treated cells were placed in the upper chamber. Medium containing 10% of FBS plus the appropriate concentration of compound was placed in the lower chamber as a chemoattractant. The Boyden chamber was incubated 6 hours at 37° C. before the cells were fixed and stained with Diff-Quick (Dade-Berhing). Cells on the upper part of the filters were removed using a cotton swab. Cells on the underside of the filters were visualised and counted under light microscope.
The migration assay was performed the same way, using non-coated filters.

[2] = test system: HCT116 colon adenocarcinoma; experiment: Cytotoxicity assay (MTT), 6 days; format: cell-based, human; conditions: 6 days of treatment, read-out: Toxicity 6d (IC 50, μM) HCT116
Text: (§2) Four human tumoral cell lines, namely HCT116 colon adenocarcinoma, H460 lung carcinoma, MCF-7 and MDA-MB-231 breast carcinoma cell lines, and three immortalized but non tumorigenic cell lines, namely NIH3T3 mouse fibroblasts and human breast-derived MCF10-A and MRC-5 were purchased at ATCC and cultured according to their recommendations. In order to determine the cytotoxicity associated with one compound, a microculture tetrazolium assay (MTT), as described by Carmichael et al (Cancer Res, 1996) with modifications, was used. Briefly, 5.10^3 or 2.10^4 cells were seeded per well in 24-well plates 24 hours before drug addition. Cells were treated with 0, 1, 10, 17.5, 25 and 50 μM of compound solubilized in DMSO, adjusting the total volume of DMSO (Dimethylsulfoxide) to 1%. Forty-eight hours or 6 days after treatment, the medium was replaced by PBS containing 0.5 mg/ml MTT (Sigma) and cells were incubated for 3 more hours at 37° C. before solubilization of formazan crystals in 100% DMSO. Absorbance was measured using a spectrophotometer at a wavelength of 550 nm. Cell surviving fraction and 50% inhibitory concentration were calculated. All assays were performed in triplicate.

MCF10-A = experiment: Cytotoxicity assay (MTT), 6 days; format: cell-based; conditions: Homo sapiens, MCF-10A, 144 h, 6 days of treatment, read-out: Toxicity 6d (IC 50, μM) MCF10-A
Text: as §2

MRC-5 = experiment: Cytotoxicity assay (MTT), 6 days; format: cell-based; conditions: Homo sapiens, MRC5, 144 h, 6 days of treatment, read-out: Toxicity 6d (IC 50, μM) MRC-5
Text: as §2

MCF-7 breast carcinoma = experiment: Cytotoxicity assay (MTT), 6 days; format: cell-based; conditions: Homo sapiens, MCF7, 144 h, 6 days of treatment, read-out: Toxicity 6d (IC 50, μM) MCF7
Text: as §2

NIH3T3 mouse fibroblasts = experiment: Cytotoxicity assay (MTT), 6 days; format: cell-based; conditions: NIH3T3, 144 h, 6 days of treatment, read-out: Toxicity 6d (IC 50, μM) NIH3T3
Text: as §2

[3] = test system: MDA-MB-231 breast carcinoma; experiment: Cytotoxicity assay (MTT), 6 days; format: cell-based; conditions: Homo sapiens, MDA-MB-231, 144 h, 6 days of treatment, read-out: Toxicity 6d (IC 50, μM) MDA231
Text: as §2

H460 lung carcinoma = experiment: Cytotoxicity assay (MTT), 6 days; format: cell-based; conditions: Homo sapiens, NCI-H460, 144 h, 6 days of treatment, read-out: Toxicity 6d (IC 50, μM) H460
Text: as §2

MDA-MB-231 cells [4] = experiment: Matrigel invasion assay (Boyden chamber); format: cell-based, human; conditions: MDA-MB-231, Boyden chamber, matrigel
Protocol: Chemoinvasion assay was performed in Boyden chamber as described by Albini et al (Cancer Res, 1987) with some modifications. Polycarbonate membranes with 8 μm pores were coated with matrigel (125 μg/cm^2) at room temperature for 48 h. Two hours before experiments, the matrix was […] with serum-free medium containing 0.1% BSA.
as §1

cell architecture = experiment: Cell architecture modification, phase contrast; format: cell-based; parameters: key: −: no effect of the compound was observed; +: an effect of the compound was observed
NIH3T3 cells = experiment: Colony formation assay with constitutively activated Ras (RasV12) and Rac (RacV12); format: cell-based, mouse; parameters: key to Colony formation: −: no effect of the compound was observed; +: an effect of the compound was observed
Protocol: (§3) The impact of the compounds on Ras and Rac signaling pathways was analysed with two reporter systems described by Imler (Nature 1988) and Lin (Science, 1995) respectively on one hand, and by a colony formation assay in the presence of constitutively activated Ras (RasV12) and Rac (RacV12) on the other hand. For this latter experiment, fifty percent confluent NIH3T3 cells in a 10 cm diameter petri dish were transfected with 0.5 μg pSV2-RasV12 or 0.5 μg pEXV RacV12 plasmids plus 100 ng of pSV2-neomycin plasmid using Lipofectamine-Plus reagent (Invitrogen) according to the manufacturer's instructions. Forty-eight hours later, cells were trypsinised, splitted to ⅓, and incubated in the presence of complete medium supplemented with 400 μg/ml geneticin (Invitrogen) and different doses of compound (1, 10, 17.5, 25 and 50 μM) until emerging resistant clones appear (2-3 weeks). The medium was renewed every 3 days. Colonies with a minimum of 50 cells were counted after staining with Fuschin 2%.

HCT116 cells = experiment: Anchorage-independent growth assay (soft agar / Matrigel); format: cell-based, human; conditions: Homo sapiens, HCT-116, 168 h; HCT116, 3-dimensional growth, 1 week
Protocol: In order to evaluate the effect of the compounds on the capacity of tumor cells to grow without anchorage, HCT116 cells were seeded either in agar or in Matrigel (BD, France). For 3D growth experiment in soft agar in 24-well plates, 5.10^3 HCT116 cells were resuspended in 250 μl of complete medium containing 0.3% soft-agar (Difco) and different concentrations of compound (0.1, 1, 10, 17.5, 25 and 50 μM). Cells were then poured on a solidified layer of medium containing 0.5% of soft-agar plus the compound at the same concentration than in the upper layer. Cells were incubated at 37° C. for 1 week before they were analysed using a phase contrast microscope (Nikon). For 3D growth experiment in Matrigel, 10^4 HCT116 cells were resuspended in 300 μl of complete medium containing 5 mg/ml Matrigel (BD, France) and different concentrations of compound (0.1, 1, 10, 17.5, 25 and 50 μM), and poured in 24-well plates. After solidification at 37° C. for 15 min., complete medium containing the compound was added to each well. Cells were incubated for 1 week before they were collected using Matrisperse (BD, France) according to the manufacturer's instructions. After recovery, alive cells were counted with trypan blue exclusion.

Ras = experiment: Ras-dependant signaling pathway analysis (reporter system); format: cell-based; parameters: key: −: no effect of the compound was observed; +: an effect of the compound was observed
Protocol: as §3

NIH3T3 = experiment: Cytoskeleton analysis, actin staining (FITC-phalloidin); format: cell-based, mouse
Protocol: Since major rearrangements of cytoskeleton are observed in tumor cells and since the small GTPases are known to regulate these events, analysis of actin cytoskeleton was performed. Subconfluent cells seeded onto coverslips were treated with different concentration of compound (1, 10, 17.5, 25 and 50 μM) or vehicle for 24 h, before being fixed in 4% formaldehyde for 15 min., permeabilized in 0.2% Triton X100 for 5 minutes and incubated in PowerBlock (Biogenex) for 10 min. Actin filaments were stained with 0.5 μg/ml fluorescein isothiocyanate (FITC)-labelled phalloidin for 1 hour. Analysis was performed using an inverted fluorescent microscope.

In the case of `O=c1cc(CO)occ1OCCCCCN1CCc2ccccc21` [EHT 8650, 5-[5-(2,3-Dihydro-indol-1-yl)-pentyloxy]-2-hydroxymethyl-4H-pyran-4-one], the IC50 (HCT116) is reported as > 100 µM.
In the case of `C/C=C/c1oc(CO)cc(=O)c1OCCCCCOc1ccccc1CCC` [EH9301, (E)-6-(Hydroxymethyl)-2-(propen-1-yl)-3-[5-(2-propylphenyloxy)pentyloxy]-4H-pyran-4-one], the Migration (MDA-MB-231 cells [1]) is reported as “no effect”, the IC50 ([2]; Homo sapiens, HCT-116, 144 h) is reported as 20 µM and the IC50 (MCF10-A) is reported as > 50 µM. For the same molecule, the IC50 (MRC-5) was 35 µM, the IC50 (MCF-7 breast carcinoma) was 20 µM and the IC50 (NIH3T3 mouse fibroblasts) was 50 µM. For the same molecule, the IC50 [3] was 25 µM, the IC50 (H460 lung carcinoma) was 25 µM and the Invasion (MDA-MB-231 cells [4]) was “No effect”. For the same molecule, the “Cell architecture modification phase contrast” value (cell architecture) was “−” and the Colony formation (NIH3T3 cells) was “−”.
`C/C=C/c1oc(CO)cc(=O)c1OCCCCCOc1cccc(Cl)c1` [EH16201, (E)-3-[5-(3-Chlorophenyloxy)pentyloxy]-6-(hydroxymethyl)-2-(propen-1-yl)-4H-pyran-4-one] gave an IC50 (HCT116 cells) of 12.5 µM, an IC50 ([2]; Homo sapiens, HCT-116, 144 h) of 50 µM and an IC50 (MCF-7 breast carcinoma) of 25 µM. The IC50 (NIH3T3 mouse fibroblasts) was 25 µM, the IC50 [3] was > 50 µM and the IC50 (H460 lung carcinoma) was 20 µM.
In the case of `C/C=C/c1oc(CO)cc(=O)c1OCCCCCOc1ccc(Cl)cc1CCC` [EHT 1405, (E)-3-[5-(4-chloro-2-propyl-phenoxy)-pentyloxy]-6-hydroxymethyl-2-propenyl-4H-pyran-4-one], the IC50 (HCT116) is reported as 4 µM.
`O=c1cc(COC2CCCCO2)occ1OCCCCCn1ccc2ccc(Cl)cc21` (centres unmarked) [EHT 8617, 5-[5-(6-Chloro-indol-1-yl)-pentyloxy]-2-(tetrahydro-pyran-2-yloxymethyl)-4H-pyran-4-one] gave an IC50 (HCT116) of 1.5 to 4 µM.
With `C/C=C/c1oc(CO)cc(=O)c1OCCCCCOc1ccc(Cl)c(Cl)c1` [EH30101] the IC50 (HCT116 cells) was 7.5 µM, the IC50 ([2]; Homo sapiens, HCT-116, 144 h) was 50 µM and the IC50 (MCF-7 breast carcinoma) was 45 µM. For the same molecule, the IC50 (NIH3T3 mouse fibroblasts) was 0.1 to 0.5 µM, the IC50 [3] was 30 to 35 µM and the IC50 (H460 lung carcinoma) was 35 µM.
In the case of `O=C(NCc1ccccc1)c1cc(=O)c(OCCCCCOc2ccc(Cl)cc2)co1` [EH28900, N-Benzyl-5-[5-(4-Chlorophenyloxy)pentyloxy]-4-oxo-4H-pyran-2-carboxamide], the “Small GTPases activities Ras” value (Ras) is reported as “−”, the IC50 [2] is reported as 25 µM and the IC50 ([2]; Homo sapiens, HCT-116, 144 h) is reported as ≤ 15 µM. The IC50 (MCF10-A) was 50 µM, the IC50 (MCF-7 breast carcinoma) was 20 µM and the IC50 (NIH3T3 mouse fibroblasts) was 0.5 µM. For the same molecule, the IC50 [3] was 5 µM, the IC50 (H460 lung carcinoma) was 10 µM and the “Cell architecture modification phase contrast” value (cell architecture) was “−”.
In the case of `O=c1cc(CO)occ1OCCCCCOc1ccc(Cl)cc1` [EH15500, 5-[5-(4-Chlorophenyloxy)pentyloxy]-2-(hydroxymethyl)-4H-pyran-4-one], the “Small GTPases activities Ras” value (Ras) is reported as “−”, the “general morphology of NIH3T3 cells, as detected by β-actin staining” value (NIH3T3) is reported as “affected” and the “Cell architecture modification actin staining (R: ruffles; FC: focal complexes) NIH3T3” value (NIH3T3; 24 h treatment) is reported as “cell destructuration”. The IC50 ([2]; Homo sapiens, HCT-116, 144 h) was 50 µM, the melting point was 95 to 97 °C and the IC50 (MCF-7 breast carcinoma) was > 50 µM. For the same molecule, the IC50 [3] was 15 µM, the IC50 (H460 lung carcinoma) was 35 µM and the “Cell architecture modification phase contrast” value (cell architecture) was “+”. For the same molecule, the Colony formation (NIH3T3 cells) was “−”.
With `O=c1cc(CO)occ1OCCCCCn1cnc2c(Cl)ncnc21` [EHT 0248, 5-[5-(6-Chloro-purin-9-yl)-pentyloxy]-2-hydroxymethyl-4H-pyran-4-one] the IC50 (HCT116) was > 100 µM.
With `O=C(NC1CCCCC1)OCc1cc(=O)c(OCCCCCn2ccc3ccccc32)co1` [EHT 6231, Cyclohexyl-carbamic acid 5-(5-indol-1-yl-pentyloxy)-4-oxo-4H-pyran-2-ylmethyl ester] the “IC50 fold higher as compared to compound EHT 7395” value (HCT116; MTT, HCT116) was 2 fold.
With `C/C=C/c1oc(CO)cc(=O)c1OCCCCCOc1ccc(Cl)cc1` [EH26101, (E)-3-[5-(4-Chlorophenyloxy)pentyloxy]-6-(hydroxymethyl)-2(propen-1-yl)-4H-pyran-4-one] the IC50 (HCT116 cells) was 50 µM, the IC50 ([2]; Homo sapiens, HCT-116, 144 h) was > 50 µM and the IC50 (MCF-7 breast carcinoma) was > 50 µM. For the same molecule, the IC50 (NIH3T3 mouse fibroblasts) was 1 to 5 µM, the IC50 [3] was 40 to 45 µM and the IC50 (H460 lung carcinoma) was 35 µM.
